Test results: ChEMBL document CHEMBL4024707, “Using gene expression database to uncover biology functions of 1,4-disubstituted 1,2,3-triazole analogues synthesized via a copper (I)-catalyzed reaction” (Eur J Med Chem, 2017)
Active and inactive are the calls of the source. The rule behind the calls is not given here.

Assays:
[1] = test system: Hep 3B2; experiment: Cell cycle arrest in human Hep3B cells assessed as accumulation at G0/G1 phase at 2.5 uM after 24 hrs by propidium iodide staining based flow cytometry (reference value: 36.3 to 39.0%); assay type: functional
[2] = test system: Hep 3B2; experiment: Cell cycle arrest in human Hep3B cells assessed as accumulation at G0/G1 phase at 5 uM after 48 hrs by propidium iodide staining based flow cytometry (reference value: 39.7 to 40.4%); assay type: functional
[3] = test system: Hep 3B2; experiment: Cell cycle arrest in human Hep3B cells assessed as accumulation at G0/G1 phase at 40 uM after 24 hrs by propidium iodide staining based flow cytometry (reference value: 36.3 to 39.0%); assay type: functional
[4] = test system: Hep 3B2; experiment: Cell cycle arrest in human Hep3B cells assessed as accumulation at G0/G1 phase at 40 uM after 72 hrs by propidium iodide staining based flow cytometry (reference value: 41.6 to 46.2%); assay type: functional
[5] = test system: Hep 3B2; experiment: Cell cycle arrest in human Hep3B cells assessed as accumulation at sub-G1 phase at 40 uM after 72 hrs by propidium iodide staining based flow cytometry (reference value: 0.6 to 3.3%); assay type: functional
[6] = test system: Hep 3B2; experiment: Cell cycle arrest in human Hep3B cells assessed as accumulation at S phase at 40 uM after 72 hrs by propidium iodide staining based flow cytometry (reference value: 16.4 to 21.1%); assay type: functional
[7] = test system: Hep 3B2; experiment: Cell cycle arrest in human Hep3B cells assessed as accumulation at G0/G1 phase at 40 uM after 48 hrs by propidium iodide staining based flow cytometry (reference value: 39.7 to 40.4%); assay type: functional
[8] = test system: Hep 3B2; experiment: Cell cycle arrest in human Hep3B cells assessed as accumulation at G2/M phase at 40 uM after 48 hrs by propidium iodide staining based flow cytometry (reference value: 34.8 to […]%); assay type: functional
[9] = test system: Hep 3B2; experiment: Cell cycle arrest in human Hep3B cells assessed as accumulation at G0/G1 phase at 10 uM after 72 hrs by propidium iodide staining based flow cytometry (reference value: 41.6 to 46.2%); assay type: functional
[10] = test system: Hep 3B2; experiment: Induction of autophagy in human Hep3B cells assessed as ratio of LC3-2 to beta actin level at 40 uM after 72 hrs in presence of curcumin by Western blot analysis
[11] = test system: Hep 3B2; experiment: Down regulation of PIK3CA expression in human Hep3B cells at 1 uM after 6 to 24 hrs by L1000 expression profiling method relative to control; assay type: functional
[12] = test system: Hep 3B2; experiment: Up regulation of CDCA4 expression in human Hep3B cells at 1 uM after 6 to 24 hrs by L1000 expression profiling method relative to control; assay type: functional
[13] = target: Glycogen synthase kinase-3 beta (Homo sapiens) (UniProt P49841); experiment: Inhibition of GSK3beta phosphorylation at Ser9 in human Hep3B cells assessed as ratio of phosphorylated GSK3beta to beta-actin level at 10 uM after 48 hrs by Western blot analysis; assay type: cell-based
Glycogen synthase kinase-3 beta (Homo sapiens), sequence (P49841 whole entry, looked up): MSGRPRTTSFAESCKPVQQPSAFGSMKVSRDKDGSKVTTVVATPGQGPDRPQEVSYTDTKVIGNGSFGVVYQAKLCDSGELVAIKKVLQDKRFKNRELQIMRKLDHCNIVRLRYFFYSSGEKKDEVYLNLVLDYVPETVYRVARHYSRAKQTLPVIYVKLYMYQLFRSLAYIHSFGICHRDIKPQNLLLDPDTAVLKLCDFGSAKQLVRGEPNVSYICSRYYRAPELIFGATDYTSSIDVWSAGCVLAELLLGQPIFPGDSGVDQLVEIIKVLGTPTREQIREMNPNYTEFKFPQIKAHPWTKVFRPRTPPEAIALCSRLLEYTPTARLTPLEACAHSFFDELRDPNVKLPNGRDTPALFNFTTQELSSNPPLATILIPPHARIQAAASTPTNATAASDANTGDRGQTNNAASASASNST

[14] = test system: Hep 3B2; experiment: Up regulation of […] expression in human Hep3B cells at 1 uM after 6 to 24 hrs by L1000 expression profiling method relative to control; assay type: functional
[15] = test system: Hep 3B2; experiment: Growth inhibition of human Hep3B cells at 20 uM up to 72 hrs by MTT assay; assay type: functional, cell-based
[16] = test system: Hep 3B2; experiment: Down regulation of NVL expression in human Hep3B cells at 1 uM after 6 to 24 hrs by L1000 expression profiling method relative to control; assay type: functional
[17] = test system: Hep 3B2; experiment: Down regulation of HTRA1 expression in human Hep3B cells at 1 uM after 6 to 24 hrs by L1000 expression profiling method relative to control; assay type: functional
[18] = test system: Hep 3B2; experiment: Down regulation of EDN1 expression in human Hep3B cells at 1 uM after 6 to 24 hrs by L1000 expression profiling method relative to control; assay type: functional
[19] = test system: Hep 3B2; experiment: Down regulation of ARL4C expression in human Hep3B cells at 1 uM after 6 to 24 hrs by L1000 expression profiling method relative to control; assay type: functional
[20] = test system: Hep 3B2; experiment: Down regulation of FZD1 expression in human Hep3B cells at 1 uM after 6 to 24 hrs by L1000 expression profiling method relative to control; assay type: functional
[21] = target: Glycogen synthase kinase-3 alpha (Homo sapiens) (UniProt P49840); experiment: Inhibition of GSK3alpha phosphorylation at Ser21 in human Hep3B cells assessed as ratio of phosphorylated […] to beta-actin level at 10 uM after 48 hrs by Western blot analysis; assay type: cell-based
Glycogen synthase kinase-3 alpha (Homo sapiens), sequence (P49840 2-483 limits assumed): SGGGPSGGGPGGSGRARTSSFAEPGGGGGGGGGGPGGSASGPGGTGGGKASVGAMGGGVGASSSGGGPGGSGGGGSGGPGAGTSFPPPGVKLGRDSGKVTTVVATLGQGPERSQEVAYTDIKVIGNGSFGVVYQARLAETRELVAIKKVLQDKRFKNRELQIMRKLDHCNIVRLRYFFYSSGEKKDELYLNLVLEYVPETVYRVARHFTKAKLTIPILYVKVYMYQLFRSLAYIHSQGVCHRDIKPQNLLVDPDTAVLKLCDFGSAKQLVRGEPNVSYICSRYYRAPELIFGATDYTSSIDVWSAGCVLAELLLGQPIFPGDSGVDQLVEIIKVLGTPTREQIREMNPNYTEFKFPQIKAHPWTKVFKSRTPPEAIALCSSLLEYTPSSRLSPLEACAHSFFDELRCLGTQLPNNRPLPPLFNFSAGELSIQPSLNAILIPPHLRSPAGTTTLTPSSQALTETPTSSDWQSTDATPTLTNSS

[22] = test system: Hep 3B2; experiment: Down regulation of GNA15 expression in human Hep3B cells at 1 uM after 6 to 24 hrs by L1000 expression profiling method relative to control; assay type: functional
[23] = test system: Hep 3B2; experiment: Down regulation of PPOX expression in human Hep3B cells at 1 uM after 6 to 24 hrs by L1000 expression profiling method relative to control; assay type: functional
[24] = test system: Hep 3B2; experiment: Cell cycle arrest in human Hep3B cells assessed as accumulation at S phase at 10 uM after 48 hrs in presence of curcumin by propidium iodide staining based flow cytometry (reference value: 23.8 +/- 1.9%); assay type: functional
[25] = test system: Hep 3B2; experiment: Down regulation of GRB7 expression in human Hep3B cells at 1 uM after 6 to 24 hrs by L1000 expression profiling method relative to control; assay type: functional
[26] = test system: Hep 3B2; experiment: Down regulation of IL1B expression in human Hep3B cells at 1 uM after 6 to 24 hrs by L1000 expression profiling method relative to control; assay type: functional
[27] = test system: Hep 3B2; experiment: Down regulation of PLEKHM1 expression in human Hep3B cells at 1 uM after 6 to 24 hrs by L1000 expression profiling method relative to control; assay type: functional
[28] = test system: Hep 3B2; experiment: Down regulation of SUPV3L1 expression in human Hep3B cells at 1 uM after 6 to 24 hrs by L1000 expression profiling method relative to control; assay type: functional
[29] = test system: Hep 3B2; experiment: Down regulation of FAM69A expression in human Hep3B cells at 1 uM after 6 to 24 hrs by L1000 expression profiling method relative to control; assay type: functional
[30] = test system: Hep 3B2; experiment: Up regulation of CDKN1A expression in human Hep3B cells at 1 uM after 6 to 24 hrs by L1000 expression profiling method relative to control; assay type: functional
[31] = test system: Hep 3B2; experiment: Induction of autophagy in human Hep3B cells after 48 to 72 hrs by acridine orange staining based flow cytometry; assay type: functional, cell-based
[32] = test system: Hep 3B2; experiment: Down regulation of DUSP11 expression in human Hep3B cells at 1 uM after 6 to 24 hrs by L1000 expression profiling method relative to control; assay type: functional
[33] = test system: Hep 3B2; experiment: Down regulation of ZNF586 expression in human Hep3B cells at 1 uM after 6 to 24 hrs by L1000 expression profiling method relative to control; assay type: functional
[34] = test system: Hep 3B2; experiment: Down regulation of TFAP2A expression in human Hep3B cells at 1 uM after 6 to 24 hrs by L1000 expression profiling method relative to control; assay type: functional
[35] = test system: Hep 3B2; experiment: Down regulation of DNMT3A expression in human Hep3B cells at 1 uM after 6 to 24 hrs by L1000 expression profiling method relative to control; assay type: functional
[36] = test system: Hep 3B2; experiment: Effect on total GSK3beta expression in human Hep3B cells assessed as ratio of GSKbeta to beta-actin level at 10 uM after 48 hrs by Western blot analysis; assay type: cell-based; conditions: hep 3b2, 48 h

Structure (SMILES): COc1ccc(CNC(=O)Nc2ncc([N+](=O)[O-])s2)cc1
- Activity [1]: 36.8%
- Activity [2]: 38.5%
- Activity [3]: 35%
- Activity [4]: 38.5%
- Activity [5]: 5.4%
- Activity [6]: 13.5%
- Activity [7]: 34.7%
- Activity [8]: 41.6%
- Activity [9]: 43.3%
- Ratio [10]: 2.6

Structure (SMILES): O=C1COc2ccccc2N1Cc1cn(CCC2OCCO2)nn1
- log2FC [11]: -4.2586
- log2FC [12]: 3.2705
- Ratio [13]: 0.7
- log2FC [14]: 3.5557
- growth inhibition (GI) [15]: Active
- log2FC [16]: -3.779
- log2FC [17]: -3.2036
- log2FC [18]: -3.5482
- log2FC [19]: -3.744
- log2FC [20]: -3.5324
- Ratio [21]: 0.9
- log2FC [22]: -4.0259
- log2FC [23]: -3.7552
- Activity [24]: 8.8%
- log2FC [25]: -4.419
- log2FC [26]: -3.3463
- log2FC [27]: -3.9025
- log2FC [28]: -4.4808
- log2FC [29]: -4.3309
- log2FC [30]: 3.0523
- Activity [31]: Dose-dependent effect
- log2FC [32]: -3.3243
- log2FC [33]: -4.0824
- log2FC [34]: -3.78
- log2FC [35]: -4.2565
- Ratio [36]: 0.8
